# Measured values published in patent publication US7923443B2, “Pharmaceutical composition for the treatment of bone fracture” (Dong Wha Pharmaceutical Co., Ltd., priority 2004, dated 2011).
# Marks after values point to notes of the source that are not given here.
# Assays:
# Assay type in all cases: in vivo, S.D. rats
# [1] = system: rib fracture; assay: Effect of promoting fracture healing in rib fracture-induced rat model (overall); conditions: compared with the results for N-hydroxy benzamidine compound above
# Method: (§1) The benzamidine compound of Chemical Formula 1 was assayed for therapeutic effect on bone fracture in rat models subjected to rib fracture. Starting from 2 days after the induction of rib fracture, the administration of the benzamidine compound was continued for one, two, three and four weeks. Changes in (body weight, body weight gain, volume of bony callus, bone density, bone strength, and bone histopathology were observed.
# (§2) A total of 80 S.D. rats (10-week-old, BioGenomics, Korea) was adapted to a laboratory environment for 12 days before being used in experiments. While being housed at a density of two or three to a plastic cage, the experimental animals were kept in a breeding room under controlled temperature (20 to 25° C.) and humidity (30 to 35%). Under light-dark cycles of 12 hours, the rats were allowed to have free access to feedstuff and tap water.
# (§3) 10 mg and 50 mg of N-hydroxy-4-{5-[4-(5-isopropyl-2-methyl-1,3-thiazol-4-yl)phenoxy]pentoxy}benzamidine were completely dissolved in 5 ml of sterilized distilled water. The benzamidine compound in the solutions was orally administered at doses of 10 mg and 50 mg per kg of body weight once a day for one, two, three and four weeks from day 2 of the surgery. […]
# [2] = Body weight gain in rib fracture-induced rat model
# Method: as §1, §2
# (§4) 10 mg and 50 mg of N-hydroxy-4-{5-[4-(5-isopropyl-2-methyl-1,3-thiazol-4-yl)phenoxy]pentoxy}benzamidine were completely dissolved in 5 ml of sterilized distilled water. The benzamidine compound in the solutions was orally administered at doses of 10 mg and 50 mg per kg of body weight once a day for one, two, three and four weeks from day 2 of the surgery.
# (§5) All the experimental animals were anesthetized with ketamine hydrochloride and xylazine hydrochloride and underwent an operation for inducing a fracture on the 8th and the 9th rib. In this regard, the ribs were transversely cut with operation scissors. After the fracture induction, the fractured ribs were assembled to be aligned with each other and the wound cavity was closed through skin suture.
# All the experimental animals were measured for body weight one day before the operation, the day of the operation, the day of administration, and 7, 14, 21 and 28 days after administration. In order to reduce the difference among individuals due to feedstuff intake, all experimental animals were starved for 18 hours or more on the day of the measurement. Also, to minimize the difference of change in body weight of individual animals, body weight gain during time periods from the day of the operation to 7, 14, 21 and 28 days after the administration were calculated.
# [3] = system: bony callus formed around the fractured 8th and 9th ribs; assay: Volume of bony callus in rib fracture-induced rat model
# Method: as §1, §2, §4, §5
# On the sacrificial day, the bony callus formed around the fractured 8th and 9th ribs was separated from adjacent tissues and taken out of all experimental animals. The enucleated bony calluses were measured for long and short diameters in millimeters. The volume of the bony callus was calculated from the measurements using the following mathematic formula 1. Volume of Bony callus=½×(a×b^2) Formula 1
# a: long diameter of bony callus,
# b: short diameter of bony callus.
# [4] = system: bony callus; assay: Histomorphometry of bony callus (connective, cartilage, bone tissue content), 8th rib
# Method: as §1, §2, §4, §5
# (§6) The 8th rib enucleated after the fracture induction was fixed in 10% neutral formalin, followed by decalcification by changing a decalcification solution (2.24% formic acid, 0.5N […]) with fresh solution once a day for five days. After completion of the decalcification, the rib was embedded in paraffin. The paraffin-embedded tissue was sliced at a thickness of 3 to 4 μm, stained with hematoxylin-eosin or Masson's trichrome and observed through an optical microscope.
# From the rib tissue specimen prepared above, the amounts of the connective tissue, cartilage and bone tissue in the bony callus were examined using an Analysis Image processing system (SIS Germany) and are represented as percentages in Tables 3 to 5, below.
# [5] = system: osteoclasts in the bony callus; assay: Number of osteoclasts in the bony callus, 8th rib
# Method: as §1, §2, §4, §5, §6
# Furthermore, the number of osteoclasts in the bony callus, particularly, within an area of (200 μm)^2 on the fracture surface at which endochondral ossification commenced, was measured using an Analysis Image processing system (SIS Germany).
# [6] = system: bony callus; assay: Bone density of bony callus (DEXA), 9th rib
# Method: as §1, §2, §4, §5
# The 9th rib enucleated after the fracture induction was measured for the bone density around the bony callus using dual-energy x-ray absorptiometry (DEXA, PXImus; Lunar Medison, Wis.) and the bone density is calculated in mg/cm^2 in Table 7.
# [7] = system: bony callus; assay: Bone strength of bony callus (three point bending test), 9th rib
# Method: as §1, §2, §4, §5
# The bone strength around the fracture face at which a bony callus was formed in the 9th rib enucleated after the fracture induction was determined from three point bending tests using an Instron material testing system (Instron 6022; Instron, USA; speed 20 mm/min).
# [8] = system: bony callus; assay: Histopathological observation of 8th rib (FIG. 1); conditions: all administration time periods; versus non-treated group; dose-dependent
# Method: FIG. 1 an optical microphotograph showing sliced tissue specimens of the 8th rib extracted after fracture induction, stained with Masson's trichrome.
# as §1, §2, §3
# [9] = 10 mg/kg oral once a day, 7 days after administration
# [10] = 10 mg/kg oral once a day, 14 days after administration
# [11] = 10 mg/kg oral once a day, 21 days after administration
# [12] = 10 mg/kg oral once a day, 28 days after administration
# [13] = 50 mg/kg oral once a day, 7 days after administration
# [14] = 50 mg/kg oral once a day, 14 days after administration
# [15] = 50 mg/kg oral once a day, 21 days after administration
# [16] = 50 mg/kg oral once a day, 28 days after administration
structure (smiles),measurement,setting,value
"Cc1nc(-c2ccc(OCCCCCOc3ccc(C(=N)N)cc3)cc2)c(C(C)C)s1 [4-{5-[4-(5-isopropyl-2-methyl-1,3-thiazol-4-yl)phenoxy]pentoxy}benzamidine]",Healing effects on bone fracture,[1],same healing effects as above
"Cc1nc(-c2ccc(OCCCCCOc3ccc(C(=N)NO)cc3)cc2)c(C(C)C)s1 [Cpd. Of Chemical Formula 1, N-hydroxy-4-{5-[4-(5-isopropyl-2-methyl-1,3-thiazol-4-yl)phenoxy]pentoxy}benzamidine]",Changes in Body Weight Gain,[2]; [9],16.00 ± 13.55 g
same,Changes in Body Weight Gain,[2]; [10],44.40 ± 14.54 g
same,Changes in Body Weight Gain,[2]; [11],46.40 ± 22.39 g
same,Changes in Body Weight Gain,[2]; [12],61.20 ± 22.81 g
same,Changes in Body Weight Gain,[2]; [13],14.80 ± 08.81 g
same,Changes in Body Weight Gain,[2]; [14],36.82 ± 29.52 g
same,Changes in Body Weight Gain,[2]; [15],68.60 ± 16.65 g
same,Changes in Body Weight Gain,[2]; [16],84.40 ± 23.37 g
same,Changes in Bony Callus Volume,[3]; [9],12.84 ± 4.42* mm^3
same,Changes in Bony Callus Volume,[3]; [10],5.47 ± 1.81* mm^3
same,Changes in Bony Callus Volume,[3]; [11],4.73 ± 2.13* mm^3
same,Changes in Bony Callus Volume,[3]; [12],3.96 ± 2.41* mm^3
same,Changes in Bony Callus Volume,[3]; [13],8.62 ± 3.43* mm^3
same,Changes in Bony Callus Volume,[3]; [14],4.36 ± 1.44* mm^3
same,Changes in Bony Callus Volume,[3]; [15],3.84 ± 1.86* mm^3
same,Changes in Bony Callus Volume,[3]; [16],3.37 ± 0.79* mm^3
same,Changes in Content of Bone Tissue in Bony Callus,[4]; [9],37.95 ± 6.44 % relative to total bony callus
same,Changes in Content of Cartilage Tissue in Bony Callus,[4]; [9],24.79 ± 5.43 % relative to total bony callus
same,Changes in Content of Connective Tissue of Bony Callus,[4]; [9],33.19 ± 3.06 % relative to total bony callus
same,Changes in Content of Bone Tissue in Bony Callus,[4]; [10],54.31 ± 9.50 % relative to total bony callus
same,Changes in Content of Cartilage Tissue in Bony Callus,[4]; [10],23.77 ± 3.44 % relative to total bony callus
same,Changes in Content of Connective Tissue of Bony Callus,[4]; [10],6.28 ± 0.72 % relative to total bony callus
same,Changes in Content of Bone Tissue in Bony Callus,[4]; [11],66.71 ± 5.41 % relative to total bony callus
same,Changes in Content of Cartilage Tissue in Bony Callus,[4]; [11],18.51 ± 2.29 % relative to total bony callus
same,Changes in Content of Connective Tissue of Bony Callus,[4]; [11],5.55 ± 1.42 % relative to total bony callus
same,Changes in Content of Bone Tissue in Bony Callus,[4]; [12],83.30 ± 4.43 % relative to total bony callus
same,Changes in Content of Cartilage Tissue in Bony Callus,[4]; [12],6.59 ± 2.02 % relative to total bony callus
same,Changes in Content of Connective Tissue of Bony Callus,[4]; [12],3.20 ± 0.89 % relative to total bony callus
same,Changes in Content of Bone Tissue in Bony Callus,[4]; [13],39.24 ± 14.12 % relative to total bony callus
same,Changes in Content of Cartilage Tissue in Bony Callus,[4]; [13],22.42 ± 5.45 % relative to total bony callus
same,Changes in Content of Connective Tissue of Bony Callus,[4]; [13],29.51 ± 5.70 % relative to total bony callus
same,Changes in Content of Bone Tissue in Bony Callus,[4]; [14],55.94 ± 8.38 % relative to total bony callus
same,Changes in Content of Cartilage Tissue in Bony Callus,[4]; [14],20.09 ± 6.38 % relative to total bony callus
same,Changes in Content of Connective Tissue of Bony Callus,[4]; [14],6.06 ± 0.44 % relative to total bony callus
same,Changes in Content of Bone Tissue in Bony Callus,[4]; [15],74.07 ± 8.43 % relative to total bony callus
same,Changes in Content of Cartilage Tissue in Bony Callus,[4]; [15],11.49 ± 2.31 % relative to total bony callus
same,Changes in Content of Connective Tissue of Bony Callus,[4]; [15],3.58 ± 0.62 % relative to total bony callus
same,Changes in Content of Bone Tissue in Bony Callus,[4]; [16],87.27 ± 8.97 % relative to total bony callus
same,Changes in Content of Cartilage Tissue in Bony Callus,[4]; [16],5.37 ± 1.38 % relative to total bony callus
same,Changes in Content of Connective Tissue of Bony Callus,[4]; [16],2.59 ± 0.52 % relative to total bony callus
same,Changes in Population of Osteoclasts within Bony Callus,[5]; [9],43.80 ± 3.83 Counts present within (200 μm)^2 of bony callus
same,Changes in Population of Osteoclasts within Bony Callus,[5]; [10],50.60 ± 2.70 Counts present within (200 μm)^2 of bony callus
same,Changes in Population of Osteoclasts within Bony Callus,[5]; [11],31.00 ± 6.67 Counts present within (200 μm)^2 of bony callus
same,Changes in Population of Osteoclasts within Bony Callus,[5]; [12],21.60 ± 3.58 Counts present within (200 μm)^2 of bony callus
same,Changes in Population of Osteoclasts within Bony Callus,[5]; [13],42.60 ± 4.62 Counts present within (200 μm)^2 of bony callus
same,Changes in Population of Osteoclasts within Bony Callus,[5]; [14],53.60 ± 2.41 Counts present within (200 μm)^2 of bony callus
same,Changes in Population of Osteoclasts within Bony Callus,[5]; [15],22.20 ± 3.03 Counts present within (200 μm)^2 of bony callus
same,Changes in Population of Osteoclasts within Bony Callus,[5]; [16],17.60 ± 2.97 Counts present within (200 μm)^2 of bony callus
same,Changes in Bone Density of Bony Callus,[6]; [9],0.24 ± 0.04 mg/cm^2
same,Changes in Bone Density of Bony Callus,[6]; [10],0.32 ± 0.04 mg/cm^2
same,Changes in Bone Density of Bony Callus,[6]; [11],0.39 ± 0.04 mg/cm^2
same,Changes in Bone Density of Bony Callus,[6]; [12],0.55 ± 0.06 mg/cm^2
same,Changes in Bone Density of Bony Callus,[6]; [13],0.24 ± 0.03 mg/cm^2
same,Changes in Bone Density of Bony Callus,[6]; [14],0.32 ± 0.04 mg/cm^2
same,Changes in Bone Density of Bony Callus,[6]; [15],0.44 ± 0.07 mg/cm^2
same,Changes in Bone Density of Bony Callus,[6]; [16],0.57 ± 0.04 mg/cm^2
same,Changes in bone strength of bony callus,[7]; [9],2.15 ± 0.42 Nos. of Impact applied
same,Changes in bone strength of bony callus,[7]; [10],2.57 ± 0.65 Nos. of Impact applied
same,Changes in bone strength of bony callus,[7]; [11],3.10 ± 0.40 Nos. of Impact applied
same,Changes in bone strength of bony callus,[7]; [12],3.26 ± 0.43 Nos. of Impact applied
same,Changes in bone strength of bony callus,[7]; [13],2.35 ± 0.47 Nos. of Impact applied
same,Changes in bone strength of bony callus,[7]; [14],2.84 ± 0.34 Nos. of Impact applied
same,Changes in bone strength of bony callus,[7]; [15],3.23 ± 0.35 Nos. of Impact applied
same,Changes in bone strength of bony callus,[7]; [16],3.35 ± 0.38 Nos. of Impact applied
same,"Bone tissue in bony callus, histopathological observation (FIG. 1)",[8],increased bone tissue in bony callus in all administration time periods
"Cc1nc(-c2ccc(OCCCCCOc3ccc(C(=N)NO)cc3)cc2)c(C(C)C)s1 [N-hydroxy-4-{5-[4-(5-isopropyl-2-methyl-1,3-thiazol-4-yl)phenoxy]pentoxy}benzamidine]",Healing effects on bone fracture,[1],same healing effects as above
